Assay results from patent US9630922B2, “3-spiro-7-hydroxamic acid tetralins as HDAC inhibitors” (Forma Therapeutics, Inc., priority 2015, dated 2017).

Target: T1, HDAC6 (Homo sapiens, UniProt Q9UBN7)
T1 construct: Full length human recombinant HDAC6 protein was expressed in baculoviral system; made in house; host or cells: baculoviral system
T1 sequence (Q9UBN7 1-1215): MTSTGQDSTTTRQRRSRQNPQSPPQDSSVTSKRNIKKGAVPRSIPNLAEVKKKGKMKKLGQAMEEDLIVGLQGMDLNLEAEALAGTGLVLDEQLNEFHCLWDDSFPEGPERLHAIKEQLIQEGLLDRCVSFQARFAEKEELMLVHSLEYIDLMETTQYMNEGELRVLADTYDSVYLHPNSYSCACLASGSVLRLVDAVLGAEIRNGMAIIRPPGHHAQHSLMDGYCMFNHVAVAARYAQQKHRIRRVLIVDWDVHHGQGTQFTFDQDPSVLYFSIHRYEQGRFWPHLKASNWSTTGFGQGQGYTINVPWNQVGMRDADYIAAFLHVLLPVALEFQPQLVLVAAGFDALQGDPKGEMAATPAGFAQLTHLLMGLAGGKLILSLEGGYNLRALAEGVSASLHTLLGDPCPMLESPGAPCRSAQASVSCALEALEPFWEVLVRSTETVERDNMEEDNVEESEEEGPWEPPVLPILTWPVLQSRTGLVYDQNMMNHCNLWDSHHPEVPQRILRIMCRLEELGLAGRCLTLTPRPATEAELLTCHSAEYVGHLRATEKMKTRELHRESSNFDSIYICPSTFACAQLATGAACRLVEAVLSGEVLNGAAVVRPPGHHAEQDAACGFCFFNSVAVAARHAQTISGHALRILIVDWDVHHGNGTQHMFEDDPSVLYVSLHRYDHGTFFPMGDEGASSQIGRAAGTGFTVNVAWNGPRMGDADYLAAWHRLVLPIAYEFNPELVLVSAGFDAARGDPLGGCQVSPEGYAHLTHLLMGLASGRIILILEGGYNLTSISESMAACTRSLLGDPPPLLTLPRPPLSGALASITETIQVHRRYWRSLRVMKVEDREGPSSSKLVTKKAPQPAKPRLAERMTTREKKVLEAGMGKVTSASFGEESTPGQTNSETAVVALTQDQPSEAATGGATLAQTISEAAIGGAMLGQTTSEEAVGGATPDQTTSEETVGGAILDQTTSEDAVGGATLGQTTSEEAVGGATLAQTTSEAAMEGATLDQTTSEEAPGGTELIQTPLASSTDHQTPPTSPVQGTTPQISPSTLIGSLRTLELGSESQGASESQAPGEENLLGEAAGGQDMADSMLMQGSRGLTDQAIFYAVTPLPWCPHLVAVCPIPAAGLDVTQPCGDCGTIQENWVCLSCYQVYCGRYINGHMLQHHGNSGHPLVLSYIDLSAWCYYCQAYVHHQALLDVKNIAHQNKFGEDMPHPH
Assay: In vitro Histone Deacetylase Assay (enzymatic HDAC6 electrophoretic mobility shift assay)
Type: biochemical
Conditions: full length human recombinant HDAC6, 1 nM enzyme, 2 μM peptide substrate RHKK(Ac)-NH2, 25° C.; read-out: HDAC6 activity range
Procedure: The enzymatic HDAC6 assay was performed using electrophoretic mobility shift assay. Full length human recombinant HDAC6 protein was expressed in baculoviral system and purified by affinity chromatography. The enzymatic reactions were assembled in 384 well plates in a total volume of 25 μL in a reaction buffer composing: 100 mM HEPES, pH7.5, 25 mM KCl, 0.1% bovine serum albumin, 0.01% Triton X-100, 1% DMSO (from compounds) 2 μM of the fluorescently labeled peptide substrate and enzyme. The enzyme was added at a final concentration of 1 nM. The peptide substrate RHKK(Ac)—NH2 was used. The compounds were tested at 12 concentrations spaced by 3× dilution intervals. Negative control samples (0%-inhibition in the absence of inhibitor) and positive control samples (100%-inhibition) were assembled in replicates of four in each assay plate. The reactions were incubated at 25° C. and quenched by the addition of 45 μL of termination buffer (100 mM HEPES, pH 7.5, 0.01% Triton X-100, 0.05% SDS).
The terminated assay plates were analyzed on LabChip® 3000 microfluidic electrophoresis instrument (Perkin Elmer/Caliper Life Sciences). The fluorescence intensity of the electrophoretically separated de-acetylated product and substrate peptide was measured. Activity in each sample was determined as the product to sum ratio (PSR): P/(S+P), where P is the peak height of the product peptide and S is the peak height of the substrate peptide. Percent inhibition (Pinh) is determined using the following equation:
Pinh=(PSR0%−PSRinh)/(PSR0%−PSR100%)*100, where PSRinh is the product sum ratio in the presence of inhibitor, PSR0% is the average product sum ration in the absence of inhibitor and PSR100% is the average product sum ratio in 100%-inhibition control samples. The IC50 values of inhibitors were determined by fitting the %-inhibition curves with 4 parameter dose-response model using XLfit 4 software.
As set forth in Table-31, below, IC50 values are defined as follows: IC50≦0.1 μM (+++); IC50>0.1 μM and ≦0.5 μM (++); IC50>0.5 μM (+).

| SMILES | IC50 [nM] |
| --- | --- |
| O=C(NO)c1ccc2c(c1)CCC1(CCN(Cc3nc4ccccc4[nH]3)C1)C2 (stereo not shown) [Compound I-1, 1′-((1H-benzo[d]imidazol-2-yl)methyl)-N-hydroxy-3,4-dihydro-1H-spiro[naphthalene-2,3′-pyrrolidine]-6-carboxamide] | ≤ 100 |
| COc1ccc(CCN2CCC3(CCc4cc(C(=O)NO)ccc4C3)C2)cc1 (stereo not shown) [Compound I-2, N-hydroxy-1′-(4-methoxyphenethyl)-3,4-dihydro-1H-spiro[naphthalene-2,3′-pyrrolidine]-6-carboxamide] | 100 to 500 |
| COc1ccc(CN2CCC3(CCc4cc(C(=O)NO)ccc4C3)C2)cc1 (stereo not shown) [Compound I-3, N-hydroxy-1′-(4-methoxybenzyl)-3,4-dihydro-1H-spiro[naphthalene-2,3′-pyrrolidine]-6-carboxamide] | 100 to 500 |
| COc1ccc(CCN2CCC3(CCc4cc(C(=O)NO)ccc4C3)C2=O)cc1 (stereo not shown) [Compound I-4, N-hydroxy-1′-(4-methoxyphenethyl)-2′-oxo-3,4-dihydro-1H-spiro[naphthalene-2,3′-pyrrolidine]-6-carboxamide] | ≤ 100 |
| O=C(NO)c1ccc2c(c1)CCC1(CCN(c3nc4ccccc4[nH]3)C1=O)C2 (stereo not shown) [Compound I-5, 1′-(1H-benzo[d]imidazol-2-yl)-N-hydroxy-2′-oxo-3,4-dihydro-1H-spiro[naphthalene-2,3′-pyrrolidine]-6-carboxamide] | ≤ 100 |
| O=C(NO)c1ccc2c(c1)CCC1(CCN(Cc3ccc(Cl)c(Cl)c3)C1=O)C2 (stereo not shown) [Compound I-6, 1′-(3,4-dichlorobenzyl)-N-hydroxy-2′-oxo-3,4-dihydro-1H-spiro[naphthalene-2,3′-pyrrolidine]-6-carboxamide] | ≤ 100 |
| O=C(NO)c1ccc2c(c1)CCC1(CCN(CC3CCCCC3)C1=O)C2 (stereo not shown) [Compound I-7, 1′-(cyclohexylmethyl)-N-hydroxy-2′-oxo-3,4-dihydro-1H-spiro[naphthalene-2,3′-pyrrolidine]-6-carboxamide] | 100 to 500 |
| Cc1ccc(CN2CCC3(CCc4cc(C(=O)NO)ccc4C3)C2=O)cc1 (stereo not shown) [Compound I-8, N-hydroxy-1′-(4-methylbenzyl)-2′-oxo-3,4-dihydro-1H-spiro[naphthalene-2,3′-pyrrolidine]-6-carboxamide] | 100 to 500 |
| CN(C)CCCN1CCC2(CCc3cc(C(=O)NO)ccc3C2)C1=O (stereo not shown) [Compound I-9, 1′-(3-(dimethylamino)propyl)-N-hydroxy-2′-oxo-3,4-dihydro-1H-spiro[naphthalene-2,3′-pyrrolidine]-6-carboxamide] | 100 to 500 |
| O=C(NO)c1ccc2c(c1)CC[C@]1(CCN(c3cccnc3)C1=O)C2 [Compound I-10, (R)-N-hydroxy-2′-oxo-1′-(pyridin-3-yl)-3,4-dihydro-1H-spiro[naphthalene-2,3′-pyrrolidine]-6-carboxamide] | ≤ 100 |
| O=C(NO)c1ccc2c(c1)CC[C@@]1(CCN(c3cccnc3)C1=O)C2 [Compound I-11, (S)-N-hydroxy-2′-oxo-1′-(pyridin-3-yl)-3,4-dihydro-1H-spiro[naphthalene-2,3′-pyrrolidine]-6-carboxamide] | ≤ 100 |
| COCCn1c(N2CC[C@]3(CCc4cc(C(=O)NO)ccc4C3)C2=O)nc2ccccc21 [Compound I-12, (R)-N-hydroxy-1′-(1-(2-methoxyethyl)-1H-benzo[d]imidazol-2-yl)-2′-oxo-3,4-dihydro-1H-spiro[naphthalene-2,3′-pyrrolidine]-6-carboxamide] | 100 to 500 |
| COCCn1c(N2CC[C@@]3(CCc4cc(C(=O)NO)ccc4C3)C2=O)nc2ccccc21 [Compound I-13, (S)-N-hydroxy-1′-(1-(2-methoxyethyl)-1H-benzo[d]imidazol-2-yl)-2′-oxo-3,4-dihydro-1H-spiro[naphthalene-2,3′-pyrrolidine]-6-carboxamide] | ≤ 100 |
| O=C(NO)c1ccc2c(c1)CC[C@]1(CCN(Cc3ccncc3)C1=O)C2 [Compound I-14, (R)-N-hydroxy-2′-oxo-1′-(pyridin-4-ylmethyl)-3,4-dihydro-1H-spiro[naphthalene-2,3′-pyrrolidine]-6-carboxamide] | > 500 |

Other lines, results leading:

| IC50 [nM] | SMILES |
| --- | --- |
| ≤ 100 | O=C(NO)c1ccc2c(c1)CCC1(CC(=O)N(c3cccnc3)C1)C2 (single isomer, unassigned) [Compound I-224] |
| ≤ 100 | Cc1ccccc1CN1CC2(CCc3cc(C(=O)NO)ccc3C2)CC1=O (single isomer, unassigned) [Compound I-225] |
| ≤ 100 | O=C(NO)c1ccc2c(c1)CC[C@]1(CC(=O)N(Cc3cccnc3)C1)C2 (single isomer, unassigned) [Compound I-226] |
| ≤ 100 | O=C(NO)c1ccc2c(c1)CCC1(CC(=O)N(c3ccc(F)cc3)C1)C2 (single isomer, unassigned) [Compound I-227] |
| ≤ 100 | O=C(NO)c1ccc2c(c1)CC[C@@]1(CCN(Cc3ccncc3)C1=O)C2 [Compound I-15, (S)-N-hydroxy-2′-oxo-1′-(pyridin-4-ylmethyl)-3,4-dihydro-1H-spiro[naphthalene-2,3′-pyrrolidine]-6-carboxamide] |
| 100 to 500 | O=C(NO)c1ccc2c(c1)CC[C@]1(CCN(c3ccncc3)C1=O)C2 [Compound I-16, (R)-N-hydroxy-2′-oxo-1′-(pyridin-4-yl)-3,4-dihydro-1H-spiro[naphthalene-2,3′-pyrrolidine]-6-carboxamide] |
| ≤ 100 | O=C(NO)c1ccc2c(c1)CC[C@@]1(CCN(c3ccncc3)C1=O)C2 [Compound I-17, (S)-N-hydroxy-2′-oxo-1′-(pyridin-4-yl)-3,4-dihydro-1H-spiro[naphthalene-2,3′-pyrrolidine]-6-carboxamide] |
| ≤ 100 | O=C(NO)c1ccc2c(c1)CC[C@]1(CCN(Cc3cccnc3)C1=O)C2 [Compound I-18, (R)-N-hydroxy-2′-oxo-1′-(pyridin-3-ylmethyl)-3,4-dihydro-1H-spiro[naphthalene-2,3′-pyrrolidine]-6-carboxamide] |
| ≤ 100 | O=C(NO)c1ccc2c(c1)CC[C@@]1(CCN(Cc3cccnc3)C1=O)C2 [Compound I-19, (S)-N-hydroxy-2′-oxo-1′-(pyridin-3-ylmethyl)-3,4-dihydro-1H-spiro[naphthalene-2,3′-pyrrolidine]-6-carboxamide] |
| ≤ 100 | O=C(NO)c1ccc2c(c1)CC[C@]1(CCN(c3ccccn3)C1=O)C2 [Compound I-20, (R)-N-hydroxy-2′-oxo-1′-(pyridin-2-yl)-3,4-dihydro-1H-spiro[naphthalene-2,3′-pyrrolidine]-6-carboxamide] |
| ≤ 100 | O=C(NO)c1ccc2c(c1)CC[C@@]1(CCN(c3ccccn3)C1=O)C2 [Compound I-21, (S)-N-hydroxy-2′-oxo-1′-(pyridin-2-yl)-3,4-dihydro-1H-spiro[naphthalene-2,3′-pyrrolidine]-6-carboxamide] |
